{
  "source": "PubChem BioAssay AID1378",
  "about": "(University of Pittsburgh Molecular Library Screening Center, 2008)",
  "target": "RAC-alpha serine/threonine-protein kinase (Homo sapiens) (UniProt P31749)",
  "sequence (P31749 whole entry, looked up)": "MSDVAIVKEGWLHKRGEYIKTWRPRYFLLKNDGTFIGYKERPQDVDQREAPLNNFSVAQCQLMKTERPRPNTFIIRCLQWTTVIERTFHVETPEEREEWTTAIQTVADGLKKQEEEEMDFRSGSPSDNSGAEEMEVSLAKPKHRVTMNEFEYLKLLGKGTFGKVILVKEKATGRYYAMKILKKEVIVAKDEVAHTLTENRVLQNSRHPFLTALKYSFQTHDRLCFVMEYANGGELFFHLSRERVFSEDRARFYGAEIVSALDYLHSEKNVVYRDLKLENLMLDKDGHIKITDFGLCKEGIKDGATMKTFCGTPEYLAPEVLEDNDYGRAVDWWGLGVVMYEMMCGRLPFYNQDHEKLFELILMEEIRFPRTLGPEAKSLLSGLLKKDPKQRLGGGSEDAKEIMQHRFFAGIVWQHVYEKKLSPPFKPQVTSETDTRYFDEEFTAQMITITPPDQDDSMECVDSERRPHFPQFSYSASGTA",
  "test": "AKT1 kinase inhibition by PKD hits, dose response, selectivity assay for PKD inhibitor project, biochemical, 57K library, IC50 (AID 1378)",
  "note": "The source made the active and inactive calls. The rule behind the calls is not given here.",
  "data": [
    {"smiles": "C/C(=N\\Nc1ncc(Cl)cc1Cl)c1ccccn1", "values": [
      {"measurement": "IC50", "result": "> 100 µM (inactive)"}
    ]}
  ]
}
